Experimental data from the METLIN SMRT retention time set (Domingo-Almenara et al. 2019).

Assay: gradient 5% acetonitrile 3 min, to 50% in 2 min, to 85% in 15 min, held 3 min, 100 µL/min
Conditions: column: Zorbax Extend-C18 2.1 x 50 mm; eluents: water / acetonitrile, 0.1% formic acid
Outline: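 Mixtures of ~100 pure standards were chromatographed on a Zorbax Extend-C18 column (2.1 × 50 mm, 1.8 μm) at 100 μL/min using water and acetonitrile, each with 0.1% formic acid. Detection used a quadrupole time-of-flight mass spectrometer in positive and negative ionization mode, and data collection spanned 3 months. Retention time was obtained from adduct peaks picked computationally and each checked manually.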

Compound	RP-LC retention time
CCCCN1CN=C(Nc2nc(C)c3ccccc3n2)NC1	680 s
O=C1CCCc2cc(S(=O)(=O)N3CCC(C(=O)NCCc4ccccc4)CC3)ccc2N1	735 s
CCOc1ccc(CNC(=O)c2c(C)sc3ccn(CC(C)C)c(=O)c23)cc1	1010 s
CCc1ccc(CNC(=O)C2CCN(c3cnc(N4CCOCC4)nc3)CC2)cc1	786 s
CCn1cnc(S(=O)(=O)N2CCC(C(=O)NCCc3nc4ccc(C)cc4[nH]3)CC2)c1	589 s
Cc1ccc(F)cc1NS(=O)(=O)c1cc2c(s1)CCN(C(=O)C1CCC1)C2	877 s
CN(CC(=O)Nc1nnc(SCc2ccc(Cl)cc2Cl)s1)S(C)(=O)=O	874 s
COc1ccc(NC(=O)c2nc(C(C)C)oc2C)cc1Cl	1080 s
COCC1(O)CCOC2(CCN(Cc3ccc(C#N)cc3)CC2)C1 (stereo not given)	578 s
Cc1cc(C)cc(-n2c(CN3CCN(C(=O)Nc4ccc5c(c4)OCO5)CC3)nc3cccnc32)c1	676 s
Cn1cc(C(=O)N2CC(c3nc(CCOCC4CCOCC4)no3)C2)cn1	663 s
Cc1ccc2[nH]c(=O)c(CCC(=O)NCc3cccnc3)cc2c1	584 s
Cc1cc(C)cc(S(=O)(=O)Nc2ccc3nc(N4CCN(C)CC4)cc(C(=O)O)c3c2)c1	612 s
O=C(C1CCN(c2ncnc3c2oc2ccccc23)CC1)N1CCCC1	654 s
O=C(C1CCCN(c2nc3cccnc3s2)C1)N1CCN(c2cccc(Cl)c2)CC1 (stereo not given)	1010 s
COc1cccc(-c2nc3nc(C)c(CCC(=O)NC4CCCCC4)c(C)n3n2)c1	827 s
O=C(Nc1ccc2c(c1)OCCO2)N1CC2(CCCCC2)CC1COc1ccncc1 (stereo not given)	604 s
O=C(NCc1cccs1)C1CCCN(c2cnc3nccnc3c2)C1 (stereo not given)	661 s
CCC(C)NC(=O)CC1Sc2ncccc2N(C)C1=O (stereo not given)	632 s
O=C1CCCCC(Cc2ccccc2)(C(=O)Nc2cccnc2)N1 (stereo not given)	623 s
Cc1ccc(-c2nnc(N3CCC(C(=O)N4CCN(C5CCCCC5)CC4)CC3)o2)cc1	644 s
C=CCn1c(=O)c2ccccc2n(Cc2nc(-c3ccccc3Br)no2)c1=O	1040 s
COCc1cn(C2CN(C(=O)c3ccc(OC)cc3OC)C2)nn1	622 s

Compound	RP-LC retention time
O=C1CCCC(=O)N1CCS(=O)(=O)Nc1ccc(Cl)c(N2CCCS2(=O)=O)c1	657 s
CCOC(=O)c1c(CN2CCOCC2)n(C)c2cc(Br)c(OC(C)=O)cc12	704 s
COCCOCC(=O)N1CC(Oc2ccc(-c3nc(C)no3)cc2)C1	679 s
CCc1nc(-c2ccc3c(c2)CCN3C(=O)Cc2ccc(OC)c(OC)c2)no1	923 s
CCn1cc(C(=O)Nc2ccccc2C)c2cccnc21	791 s
COc1ccc(NC(=O)c2cn(-c3cc(N4CCC(C)CC4)ncn3)cn2)c(OC)c1	1150 s
O=C(CN1CCN(C(=O)Nc2ccc(Br)cc2)CC1=O)NCCN1CCCCC1	602 s
O=C(CSc1ccncc1)N1CCCn2nc(-c3ccc(Cl)cc3)cc2C1	661 s
CC(C)Cn1cc2c3c(cccc31)CN(C(=O)Nc1ccc(F)cc1)CC2	1070 s
O=S(=O)(c1cccc(-c2nnc(-c3ccc(F)cc3)o2)c1)N1CCCC1	991 s
O=C(NCCCN1CCCC1=O)C1CCCN(c2ncnc3c2nc2n3CCCCC2)C1 (stereo not given)	605 s
CCc1ccc(-c2ccc(-n3nc(C)c(S(=O)(=O)N4CCC(C)CC4)c3C)nn2)cc1	1350 s
CSc1ccc(CNC(=O)CCNc2cnc3cnccn23)cc1	588 s
CCCNC(=O)C1CCCN(c2ccc(SCC(=O)Nc3cc(F)ccc3Cl)nn2)C1 (stereo not given)	748 s
COc1ccc(-c2cn3c(CCC(=O)Nc4ccc5c(c4)OCCO5)csc3n2)cc1	678 s
COc1cc(C(=O)NCCc2c[nH]c3ccc(C)cc23)cc(OC)c1OC	814 s
CCCc1noc(-c2ccnc(-n3cnc(C(=O)NC4CCCCC4)c3)c2)n1	973 s
CCOC(=O)c1ccccc1NC(=O)Cn1nc2c(Sc3ccccc3)nccn2c1=O	1060 s
CC(=O)NC(C)c1nc(-c2ccccc2Cl)no1 (stereo not given)	687 s
COc1ccc2c(c1)C1(CCN(S(=O)(=O)c3cccc(F)c3)C1)C(=O)N2 (stereo not given)	835 s
CN(C)S(=O)(=O)Nc1cccc(Br)c1	898 s
COc1ccc(Cl)cc1S(=O)(=O)N1CCC(c2noc(-c3ccccc3)n2)CC1	1130 s
